The source of these data is the OligoGym collection.

Oligonucleotides are written 5' to 3', each unit as a sugar letter and its base; * is a phosphorothioate linkage, no mark a phosphodiester; rarer units and linkages stand in square brackets, end groups in braces. Plain capitals give the bases only. d = 2'-deoxy (DNA); r = 2'-OH (RNA)
Further: test concentration or dose not given here.

For the data set, the target named is UFC1. Put plainly: reporter assay of Huesken 2005. To be noted: siRNA.
With “sense rCrGrArGrUrUrUrGrArCrArUrUrCrCrUrArUrCdTdT / antisense rGrArUrArGrGrArArUrGrUrCrArArArCrUrCrGdAdT”, the normalised inhibition (eCFP-eYFP dual reporter) came out at 95.7%.
Regarding “sense rGrUrGrGrArGrArArCrArArCrArArGrArArUrGdTdT / antisense rCrArUrUrCrUrUrGrUrUrGrUrUrCrUrCrCrArCdAdT”, the normalised inhibition (eCFP-eYFP dual reporter) is 68.9%.
Consider “sense rCrCrUrGrArGrCrUrGrGrArUrGrGrArArArGrAdTdT / antisense rUrCrUrUrUrCrCrArUrCrCrArGrCrUrCrArGrGdAdA”, for which the normalised inhibition (eCFP-eYFP dual reporter) is 120%.
Regarding “sense rArCrUrGrArArGrGrArGrGrArArUrArUrCrArGdTdT / antisense rCrUrGrArUrArUrUrCrCrUrCrCrUrUrCrArGrUdCdG”, the normalised inhibition (eCFP-eYFP dual reporter) was determined as 75.2%.
As to “sense rCrUrGrArCrGrGrArUrCrArUrUrUrCrArArArCdTdT / antisense rGrUrUrUrGrArArArUrGrArUrCrCrGrUrCrArGdGdC”, the normalised inhibition (eCFP-eYFP dual reporter) stood at 65.7%.
“sense rUrGrGrUrArUrArUrCrCrArUrGrArCrCrUrCrCdTdT / antisense rGrGrArGrGrUrCrArUrGrGrArUrArUrArCrCrAdGdC”: the normalised inhibition (eCFP-eYFP dual reporter) worked out at 31.4%.
The same measure for “sense rGrArArCrUrCrGrGrUrGrGrUrUrUrGrGrArArAdTdT / antisense rUrUrUrCrCrArArArCrCrArCrCrGrArGrUrUrCdCdT”: 97.7%; for “sense rGrGrArUrGrGrArArArGrArCrArGrCrArArArGdTdT / antisense rCrUrUrUrGrCrUrGrUrCrUrUrUrCrCrArUrCrCdAdG”: 103%; for “sense rCrCrGrGrArCrCrCrCrGrArGrArUrCrGrUrGrAdTdT / antisense rUrCrArCrGrArUrCrUrCrGrGrGrGrUrCrCrGrGdCdG”: 56.6%.
Take “sense rGrCrCrUrGrArCrGrGrArUrCrArUrUrUrCrArAdTdT / antisense rUrUrGrArArArUrGrArUrCrCrGrUrCrArGrGrCdAdT”: the normalised inhibition (eCFP-eYFP dual reporter) was 117%.
“sense rArArGrArCrArGrCrArArArGrArUrGrUrArCrAdTdT / antisense rUrGrUrArCrArUrCrUrUrUrGrCrUrGrUrCrUrUdTdC”: the normalised inhibition (eCFP-eYFP dual reporter) worked out at 113%.
The same measure for “sense rGrArCrGrGrArUrCrArUrUrUrCrArArArCrCrUdTdT / antisense rArGrGrUrUrUrGrArArArUrGrArUrCrCrGrUrCdAdG”: 123%.
With “sense rArGrGrGrCrGrUrCrArUrCrCrArArCrArCrArAdTdT / antisense rUrUrGrUrGrUrUrGrGrArUrGrArCrGrCrCrCrUdTdC”, the normalised inhibition (eCFP-eYFP dual reporter) came out at 107%.
Turning to “sense rUrGrGrUrUrCrCrGrArCrUrGrGrArGrUrCrCrAdTdT / antisense rUrGrGrArCrUrCrCrArGrUrCrGrGrArArCrCrAdAdT”, the normalised inhibition (eCFP-eYFP dual reporter) is 71.9%.
Under “sense rGrGrArCrUrArGrCrUrCrArUrCrUrCrArUrGrGdTdT / antisense rCrCrArUrGrArGrArUrGrArGrCrUrArGrUrCrCdAdA” stands 61.7%; under “sense rArGrUrCrCrArArCrArArGrGrArArGrGrArArCdTdT / antisense rGrUrUrCrCrUrUrCrCrUrUrGrUrUrGrGrArCrUdCdC”, 83.5%; under “sense rArUrCrCrArArCrArCrArArArGrArGrArArArUdTdT / antisense rArUrUrUrCrUrCrUrUrUrGrUrGrUrUrGrGrArUdGdA”, 69.1%.
With “sense rCrArGrUrCrCrCrUrUrArUrCrCrGrGrUrArUrGdTdT / antisense rCrArUrArCrCrGrGrArUrArArGrGrGrArCrUrGdAdT”, the normalised inhibition (eCFP-eYFP dual reporter) was determined as 78.8%.
As to “sense rGrGrCrArArArArUrArUrGrCrCrUrGrArCrGrGdTdT / antisense rCrCrGrUrCrArGrGrCrArUrArUrUrUrUrGrCrCdAdC”, the normalised inhibition (eCFP-eYFP dual reporter) was found to be 99.9%.
Take “sense rGrUrArUrArUrCrCrArUrGrArCrCrUrCrCrUrGdTdT / antisense rCrArGrGrArGrGrUrCrArUrGrGrArUrArUrArCdCdA”: the normalised inhibition (eCFP-eYFP dual reporter) stood at 96%.
With “sense rGrCrCrCrCrArGrArArArUrUrGrCrArGrUrUrCdTdT / antisense rGrArArCrUrGrCrArArUrUrUrCrUrGrGrGrGrCdAdG”, the normalised inhibition (eCFP-eYFP dual reporter) was 61.7%.
As for “sense rArUrUrGrCrArGrUrUrCrCrUrGrArGrCrUrGrGdTdT / antisense rCrCrArGrCrUrCrArGrGrArArCrUrGrCrArArUdTdT”, the normalised inhibition (eCFP-eYFP dual reporter) came out at 61.6%.
“sense rGrCrCrArGrGrArArUrGrUrGrCrCrCrArArArUdTdT / antisense rArUrUrUrGrGrGrCrArCrArUrUrCrCrUrGrGrCdCdC”: the normalised inhibition (eCFP-eYFP dual reporter) was 77.2%.
The same measure for “sense rGrGrGrUrGrCrArGrCrGrArCrUrGrArArGrGrAdTdT / antisense rUrCrCrUrUrCrArGrUrCrGrCrUrGrCrArCrCrCdAdC”: 85.9%.
“sense rGrArArUrGrUrGrCrCrCrArArArUrUrUrGrGrAdTdT / antisense rUrCrCrArArArUrUrUrGrGrGrCrArCrArUrUrCdCdT”: the normalised inhibition (eCFP-eYFP dual reporter) came to 67.9%.
As for “sense rArCrUrArGrCrUrCrArUrCrUrCrArUrGrGrCrUdTdT / antisense rArGrCrCrArUrGrArGrArUrGrArGrCrUrArGrUdCdC”, the normalised inhibition (eCFP-eYFP dual reporter) came out at 53.8%.
Turning to “sense rGrCrArArArGrArUrGrUrArCrArGrGrGrGrUrGdTdT / antisense rCrArCrCrCrCrUrGrUrArCrArUrCrUrUrUrGrCdTdG”, the normalised inhibition (eCFP-eYFP dual reporter) was determined as 108%.
Take “sense rArUrArUrCrCrUrArCrUrArCrUrGrCrCrCrCrAdTdT / antisense rUrGrGrGrGrCrArGrUrArGrUrArGrGrArUrArUdGdT”: the normalised inhibition (eCFP-eYFP dual reporter) worked out at 78.2%.
For the substance “sense rUrGrGrCrArGrUrGrGrArArArUrCrCrCrUrGrAdTdT / antisense rUrCrArGrGrGrArUrUrUrCrCrArCrUrGrCrCrAdGdC”, the normalised inhibition (eCFP-eYFP dual reporter) stood at 71.4%.
For the substance “sense rArUrGrGrArArArGrArCrArGrCrArArArGrArUdTdT / antisense rArUrCrUrUrUrGrCrUrGrUrCrUrUrUrCrCrArUdCdC”, the normalised inhibition (eCFP-eYFP dual reporter) amounted to 69.9%.
Take “sense rGrCrUrGrArCrArArCrGrArUrUrGrGrUrUrCrCdTdT / antisense rGrGrArArCrCrArArUrCrGrUrUrGrUrCrArGrCdAdT”: the normalised inhibition (eCFP-eYFP dual reporter) is 78%.
As for “sense rGrCrUrGrGrCrArGrUrGrGrArArArUrCrCrCrUdTdT / antisense rArGrGrGrArUrUrUrCrCrArCrUrGrCrCrArGrCdCdA”, the normalised inhibition (eCFP-eYFP dual reporter) was found to be 48.5%.
For “sense rArUrCrArGrUrCrCrCrUrUrArUrCrCrGrGrUrAdTdT / antisense rUrArCrCrGrGrArUrArArGrGrGrArCrUrGrArUdAdT”, the normalised inhibition (eCFP-eYFP dual reporter) came out at 99.1%.
For “sense rGrGrCrUrCrUrGrGrGrGrCrUrGrGrGrUrCrCrAdTdT / antisense rUrGrGrArCrCrCrArGrCrCrCrCrArGrArGrCrCdAdT”, the normalised inhibition (eCFP-eYFP dual reporter) came out at 69.9%.
On to “sense rArArGrArUrGrUrArCrArGrGrGrGrUrGrGrCrAdTdT / antisense rUrGrCrCrArCrCrCrCrUrGrUrArCrArUrCrUrUdTdG”, for which the normalised inhibition (eCFP-eYFP dual reporter) worked out at 62.3%.
Under “sense rCrUrGrArUrCrUrGrArUrUrCrArGrArArGrGrGdTdT / antisense rCrCrCrUrUrCrUrGrArArUrCrArGrArUrCrArGdGdG” stands 73.2%; under “sense rGrArUrCrArUrUrUrCrArArArCrCrUrUrUrGrUdTdT / antisense rArCrArArArGrGrUrUrUrGrArArArUrGrArUrCdCdG”, 98.8%.
For the substance “sense rArGrUrUrUrGrArCrArUrCrGrArGrUrUrUrGrAdTdT / antisense rUrCrArArArCrUrCrGrArUrGrUrCrArArArCrUdCdA”, the normalised inhibition (eCFP-eYFP dual reporter) turned out to be 122%.
For “sense rArUrCrUrCrArUrGrGrCrUrCrUrGrGrGrGrCrUdTdT / antisense rArGrCrCrCrCrArGrArGrCrCrArUrGrArGrArUdGdA”, the normalised inhibition (eCFP-eYFP dual reporter) was determined as 53.8%.
As to “sense rUrArCrUrGrCrCrCrCrArGrArArArUrUrGrCrAdTdT / antisense rUrGrCrArArUrUrUrCrUrGrGrGrGrCrArGrUrAdGdT”, the normalised inhibition (eCFP-eYFP dual reporter) worked out at 52.2%.
Regarding “sense rCrUrUrArUrCrCrGrGrUrArUrGrUrGrGrArGrAdTdT / antisense rUrCrUrCrCrArCrArUrArCrCrGrGrArUrArArGdGdG”, the normalised inhibition (eCFP-eYFP dual reporter) was 78.4%.
As for “sense rArGrUrUrGrUrGrGrGrUrGrCrArGrCrGrArCrUdTdT / antisense rArGrUrCrGrCrUrGrCrArCrCrCrArCrArArCrUdCdA”, the normalised inhibition (eCFP-eYFP dual reporter) turned out to be 80.4%.
As to “sense rCrGrUrCrArUrCrCrArArCrArCrArArArGrArGdTdT / antisense rCrUrCrUrUrUrGrUrGrUrUrGrGrArUrGrArCrGdCdC”, the normalised inhibition (eCFP-eYFP dual reporter) was 86.3%.
Regarding “sense rGrArArArUrArUrGrArGrUrUrUrGrArCrArUrCdTdT / antisense rGrArUrGrUrCrArArArCrUrCrArUrArUrUrUrCdAdG”, the normalised inhibition (eCFP-eYFP dual reporter) was 66.9%.
The same measure for “sense rCrCrGrGrUrArUrGrUrGrGrArGrArArCrArArCdTdT / antisense rGrUrUrGrUrUrCrUrCrCrArCrArUrArCrCrGrGdAdT”: 72.3%; for “sense rGrCrGrArCrUrGrArArGrGrArGrGrArArUrArUdTdT / antisense rArUrArUrUrCrCrUrCrCrUrUrCrArGrUrCrGrCdTdG”: 107%; for “sense rCrUrGrGrGrUrCrCrArUrGrGrCrUrGrGrCrArGdTdT / antisense rCrUrGrCrCrArGrCrCrArUrGrGrArCrCrCrArGdCdC”: 60.5%.
On to “sense rArCrArArCrArArGrArArUrGrCrUrGrArCrArAdTdT / antisense rUrUrGrUrCrArGrCrArUrUrCrUrUrGrUrUrGrUdTdC”, for which the normalised inhibition (eCFP-eYFP dual reporter) was found to be 86.4%.
In the case of “sense rArCrCrUrCrCrUrGrArArArUrArUrGrArGrUrUdTdT / antisense rArArCrUrCrArUrArUrUrUrCrArGrGrArGrGrUdCdA”, the normalised inhibition (eCFP-eYFP dual reporter) was 43.5%.
